Reference: ChEMBL document CHEMBL1135473, “Synthesis of (+)-cis-N-(4-isothiocyanatobenzyl)-N-normetazocine, an isothiocyanate derivative of N-benzylnormetazocine as acylant agent for the sigma(1) receptor” (J Med Chem, 2002)

Assays:
[1] = molecular target: Sigma non-opioid intracellular receptor 1 (Homo sapiens) (UniProt Q99720); conditions: Cavia porcellus; 1 uM
[2] = molecular target: Sigma non-opioid intracellular receptor 1 (Homo sapiens) (UniProt Q99720); conditions: Cavia porcellus; 5 uM
[3] = molecular target: Sigma non-opioid intracellular receptor 1 (Homo sapiens) (UniProt Q99720); conditions: Cavia porcellus; 0.1 uM
Description: Maximum binding capacity against Sigma opioid receptor type 2 at 0.1 uM BNIT

[4] = molecular target: Sigma non-opioid intracellular receptor 1 (Homo sapiens) (UniProt Q99720); conditions: Cavia porcellus; 0.1 uM; remark: listed apart in the source
[5] = molecular target: Sigma non-opioid intracellular receptor 1 (Homo sapiens) (UniProt Q99720); conditions: Cavia porcellus; 0.1 uM; remark: listed apart in the source
Description: Maximum binding capacity against Sigma opioid receptor type 1 at 0.1 uM BNIT

[6] = molecular target: Sigma non-opioid intracellular receptor 1 (Homo sapiens) (UniProt Q99720); conditions: Cavia porcellus; 0.1 uM; remark: listed apart in the source
[7] = molecular target: Sigma non-opioid intracellular receptor 1 (Homo sapiens) (UniProt Q99720); conditions: Cavia porcellus; 200 nM

Chain of Sigma non-opioid intracellular receptor 1 (Homo sapiens) (Q99720 whole entry): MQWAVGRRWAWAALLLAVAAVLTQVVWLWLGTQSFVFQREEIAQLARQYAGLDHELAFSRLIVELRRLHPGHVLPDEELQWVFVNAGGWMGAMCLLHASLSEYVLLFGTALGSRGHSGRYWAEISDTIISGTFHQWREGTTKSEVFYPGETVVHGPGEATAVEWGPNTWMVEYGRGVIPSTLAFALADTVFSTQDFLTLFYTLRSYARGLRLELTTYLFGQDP

Structure (SMILES): Cc1ccccc1NC(=N)Nc1ccccc1C
- Bmax [1]: 1010 fmol/mg
- Bmax [2]: 957 fmol/mg
- Bmax2 [3]: 1330
- Kd2 [4]: 21.4 nM
- Bmax1 [5]: 674
- Kd1 [6]: 12.8 nM

Structure (SMILES): CC(C)=CCN1CC[C@]2(C)c3cc(O)ccc3C[C@H]1[C@H]2C
- Bmax [7]: 1120 fmol/mg
